Assay results: US20090053807A1 (Novo Nordisk A/S, priority 1998, published 2009)
Where two headings read alike, the source gives them in different places. Residues, ends and D or L forms follow the SMILES beside them. No end group written: not given here.

Experiments:
[1] = target: soluble human insulin mini-receptor (mIR) (Homo sapiens, UniProt P06213, DEL496-730); assay: Fluorescence polarization competition with FITC-RP9, mIR; type: binding; settings: target mIR, label FITC-RP9, FP
[2] = system: FDC-P2 cells expressing the IL-3 and human IGF-1R receptors
[3] = target: T1, soluble human insulin receptor-immunoglobulin heavy chain chimera (sIR-Fc) (Homo sapiens, UniProt P06213); assay: Fluorescence polarization competition with FITC-RP9, sIR-Fc; type: binding; settings: for affinity / potency at IR: FP, FITC-RP9, summary of Table 22; for Bndg Ratio IGF-1R/1R: higher values indicated higher affinity for IR than IGF-1R
T1 construct: replacing the transmembrane domain and the intracellular domain of IR with constant domains from immunoglobulin Fc or λ subunits; made in house; host or cells: human embryonic kidney 293 cells (as described for the Bass construct)

IGF-1R [4] = target: T2, IGF-1R (Homo sapiens, UniProt P08069); settings: for binding ratio for IGF-1R over IR: TR-FRET at rhIGF-1R versus FP at sIR-Fc, summary of Table 22
[5] = target: recombinant human insulin receptor (Homo sapiens, UniProt P06213); assay: Substrate phosphorylation assay (HIR kinase); type: biochemical; settings: for Kinase Pot. (nM): potency, Table 8
Procedure: Subsequently, a 2000-fold dilution of horseradish peroxidase (HRPO) conjugated phosphotyrosine antibody (Transduction Laboratories, Cat. No. E120H) in TBS was added. The plates were incubated for 30 min and washed 3 times with TBS. TMB (3,3′,5,5′-tetramethylbenzidine; Kem-En-Tec, Copenhagen, Denmark) was added. One substrate from Kem-En-Tec was added. After 10^−15 min, the reaction was stopped by the addition of 1% acetic acid. The absorbance, representing the extent of substrate phosphorylation, was measured in a spectrophotometer at a wavelength of 450 nm.

[6] = target: T3, human insulin receptor (HIR) (Homo sapiens, UniProt P06213); assay: Insulin receptor binding, competition with 125I-labeled insulin (radio-receptor assay); settings: for HIR binding affinity: comparison with monomers / homodimers
T3 construct: made in house

free fat cells = assay: Adipocyte / free fat cell (FFC) assay, 3H glucose incorporation into lipid; settings: for FFC Pot.: agonist or antagonist / FFC Pot.: Table 8; for FFC Pot.: potency
MCF-7 cells [7] = assay: MCF-7 cell proliferation assay, agonist format; type: cell-based, human
MiaPaCa cells = assay: MiaPaCa cell proliferation assay, agonist format; type: cell-based, human; settings: serum-free conditions
[8] = target: His-tagged soluble recombinant human IGF-1R (srhIGF-1R-his) (Homo sapiens, UniProt P08069); assay: ALPHAScreen binding assay, competition with b-hIGF-1; settings: Table 29
[9] = system: FDC-P2 cells expressing the IL-3 and human IGF-1R receptors; assay: IGF-1 proliferation assay in FDC-P2 cells, antagonist format
[10] = target: insulin receptor construct transfected into 32D cells (Homo sapiens, UniProt P06213); assay: IR autophosphorylation assay in IR transfected 32D cells (ELISA); settings: MBP fusion peptides, FIG. 30
IGF-1R [11] = target: T2, IGF-1R; assay: TR-FRET, dissociation of biotinylated-20E2 from IGF-1R; type: binding; settings: peptides 100 μM, IGF-1 30 μM
Procedure: Best fit non-linear regression analysis of the data, was used to determine dissociation rate constants. Each data point represents a single observation.
Reactions were allowed to reach equilibrium for 6 h at RT.

IR = target: T4, IR (Homo sapiens, UniProt P06213); assay: Phage ELISA, binding of phage clones to IR (ratio over background); settings: ratio of IR divided by ratio of IGF-1R
T4 construct: replacing the transmembrane domain and the intracellular domain of IR with constant domains from immunoglobulin Fc or λ subunits; made in house; host or cells: human embryonic kidney 293 cells (as described for the Bass construct)

IGF-1R [12] = target: T2, IGF-1R; assay: Phage ELISA, binding of phage clones to IGF-1R (ratio over background); parameters: included the heterotetrameric (alpha 2-beta 2) extracellular domain of IGF-1R isolated from a mouse myeloma cell line; purchased R&D Systems 391-GR/CF; host or cells: mouse myeloma cell line; settings: ratio of IGF-1R divided by ratio of IR
MCF-7 cells [13] = assay: MCF-7 cell proliferation assay, antagonist format (50 nM IGF-1); settings: proliferation assays in the presence of IGF-1 using MCF-7 and MiaPaCa cells; Table 23
[14] = in the presence of a stimulating concentration of insulin
[15] = standard concentration of insulin

GRVDWLQRNANFYDWFVAELG [Peptide S175]
Hill [1]: −1.72 | EC50 [2]: 10000 nM | ED50, agonist activity at IGF-1R ([2]; FDC-P2 cells): > 10000 nM | agonist activity at IGF-1R ([2]; FDC-P2 cells): IGF-1R agonist activity

PPWGARFYDAIEQLVFDNL [RP4]
affinity / potency at IR [3]: high affinities for IR | Bndg Ratio IGF-1R/1R [3]: 476 | IC50 ([3]; vs. FITC-RP9, Table 22, read-out: FP sIR-Fc IC50): 17 nM | IC50 (IGF-1R [4]): 8100 nM | binding ratio for IGF-1R over IR (IGF-1R [4]): high binding ratios for IGF-1R over IR

MADYKDDDDKGSLDESFYDWFERQLGKKGGSGGSGGSGGSWLDQEWAWVQCEVYGRGCPSAAA(ETAG)PG [Peptide 538]
Kinase Pot. (nM) [5]: Inactive | HIR binding affinity [6]: substantially higher (several orders of magnitude) affinity | activity in the FFC assay / at IR (free fat cells): specific insulin receptor antagonists | FFC Pot.: agonist or antagonist (free fat cells): N | activity in the FFC assay (free fat cells; [14]): antagonists | FFC Pot. (free fat cells): 10 nM | activity in the FFC assay (free fat cells; [15]): inactive

DYKDFYDAIDQLVRGSARAGGTRD [20E2(D118)]
Bndg Ratio IGF-1R/1R [3]: 1.9 | IC50 (IGF-1R [4]; read-out: TR-FRET rhIGF-1R IC50, vs. b-20E2, Table 22): 100 nM

WFGYAWLS-NH2 (C-terminus assumed) [Peptide S317]
HIR binding affinity [6]: increased HIR binding affinity | activity in the FFC assay / at IR (free fat cells): increased potency in FFC assays | FEC (free fat cells; FFC assay potency, number of + grades agonist potency): 0

IGF-1: Insulin-like growth factor 1, from PeproTech; control
ED50, proliferation (MCF-7 cells [7]; MCF-7, serum-free conditions): 5 nM | ED50, proliferation (MiaPaCa cells): 5 nM

GIISQSCPESFYDWFAGQVSDPWWCW [Peptide G33]
affinity / potency at IR [3]: less potent | IGF-1R agonist activity (MCF-7 cells [7]; MCF-7 and MiaPaCa cell proliferation (Tables 27-28)): IGF-1R agonist activity | ED50, agonist activity at IGF-1R ([2]; FDC-P2 cells): ~10000 nM | agonist activity at IGF-1R ([2]; FDC-P2 cells): IGF-1R agonist activity | ED50 Growth ([2]; FDC-P2 cells, agonist format, Table 15): 500 nM | Max Action ([2]; FDC-P2 cells, Table 15): >50% | FDC-P2 Agonist ([2]; Table 30): + | IC50 [8]: 600 nM | antagonist activity at IGF-1R [9]: no antagonist activity

FHENFYDWFVQRVSKK [Peptide H2C]
stimulation of autophosphorylation of IR [10]: stimulate autophosphorylation of IR | affinity / potency at IR [3]: slightly less potent | rate of dissociation of b-20E2 (IGF-1R [11]): similar | Hill [1]: −0.89 | binding ratio for IGF-1R over IR (IGF-1R [4]): lower binding ratios for IGF-1R over IR

MADYKDDDDKWLDQEWAWVQCEWGRGCPSGGSGGSGSLDESFYDWFERQLGKKAAA(ETAG)PG [Peptide 539]
activity in the HIR kinase assay [5]: more active | HIR binding affinity [6]: substantially higher (several orders of magnitude) affinity | activity in the FFC assay / at IR (free fat cells): full agonist | FFC Pot. (free fat cells): 10 nM

CC(C)C[C@H](NC(=O)[C@H](CCC(N)=O)NC(=O)[C@H](CCCNC(=N)N)NC(=O)[C@H](CCC(=O)O)NC(=O)[C@H](Cc1ccccc1)NC(=O)[C@H](Cc1c[nH]c2ccccc12)NC(=O)[C@H](CC(=O)O)NC(=O)[C@H](Cc1ccc(O)cc1)NC(=O)[C@H](Cc1ccccc1)NC(=O)[C@H](CO)NC(=O)[C@@H](N)CCC(=O)O)C(=O)NCC(=O)O [Peptide S390]
Hill [1]: −0.94 | activity in the FFC assay / at IR (free fat cells): potency similar to full-length RP9 monomer peptides

FYVQQYWGHENFYDWFDRQVSQSGGAG [H2CA-4-P1-IGFR]
Comparisons IR/IGF-1R (IR): 0.3 | Comparisons IGF-1R/IR (IGF-1R [12]): 3.8

CC(C)C[C@@H]1NC(=O)[C@@H](NC(=O)[C@H](CO)NC(=O)[C@H](Cc2ccc(O)cc2)NC(=O)[C@H](Cc2ccccc2)NC(=O)[C@@H](N)CO)CSSC[C@@H](C(=O)N[C@@H](CCCNC(=N)N)C(=O)N[C@@H](CCCCN)C(=O)N[C@@H](CCCCN)C(=O)O)NC(=O)CNC(=O)[C@H](CC(=O)O)NC(=O)[C@H](Cc2c[nH]c3ccccc23)NC(=O)[C@H](CCC(N)=O)NC(=O)CNC(=O)[C@H](CCCNC(=N)N)NC(=O)[C@H](CO)NC(=O)[C@H](CCCCN)NC(=O)[C@H](CCC(=O)O)NC(=O)[C@H](C)NC(=O)[C@@H]2CCCN2C(=O)CNC(=O)[C@H](CC(N)=O)NC(=O)[C@H](C(C)C)NC(=O)[C@H](CC(C)C)NC(=O)[C@H](CO)NC(=O)[C@H](CCC(=O)O)NC1=O [RP33-IGF with KK]
Activ. (MCF-7 cells [13]): Antag.

MADYKDDDDKGSLDESFYDWFERQLGKKGGSGGSWLDQEWAWVQCEVYGRGCPSAAA(ETAG)PG [Peptide 537]
Kinase Pot. (nM) [5]: Inactive | HIR binding affinity [6]: substantially higher (several orders of magnitude) affinity | activity in the FFC assay / at IR (free fat cells): specific insulin receptor antagonists | FFC Pot.: agonist or antagonist (free fat cells): N | activity in the FFC assay (free fat cells; [14]): antagonists | FFC Pot. (free fat cells): 10 nM | activity in the FFC assay (free fat cells; [15]): inactive

CC[C@@H](C)[C@@H](NC(=O)[C@H](CCC(=O)O)NC(=O)[C@H](CC(=O)O)NC(=O)[C@H](Cc1ccccc1)NC(=O)[C@H](Cc1c[nH]c2ccccc12)NC(=O)[C@H](CCC(=O)O)NC(=O)[C@H](Cc1ccc(O)cc1)NC(=O)[C@H](Cc1ccccc1)NC(=O)[C@H](CCC(=O)O)NC(=O)[C@H](CCCCN)NC(=O)[C@H](CC(N)=O)NC(=O)[C@H](CC(N)=O)NC(=O)[C@@H](N)CCCCN)C(=O)NCC(=O)N[C@H](CCC(N)=O)C(=O)O [Peptide S320] (HELM PEPTIDE1{K.N.N.K.E.F.Y.E.W.F.D.E.[dI].G.[dQ]}$$$$V2.0; N-terminus and C-terminus assumed)
Kd ([6]; HIR binding affinity of synthetic peptides): 2800 nM
